Test results: US6872712B1, “Cyclic glycerophosphates and analogs thereof” (Yeda Research and Development Co. Ltd., priority 1999, dated 2005)

Assays:
[1] = system: protein kinases of CHO cells (P42 MAPK (ERK 2)); assay: In-gel kinase assay in the presence of MBP; type: cell-based, Chinese hamster; conditions: 2 μM for 2 and 5 minutes (FIG. 6)
Description: Phosphorylated cell proteins were separated by SDS-PAGE using a gel that was copolymerized with MBP (0.5 mg/ml) and treated as described (Karunuguran et al., EMBO J. 15:254-264, 1996). After electrophoresis, the gel was fixed with isopropanol and denatured using 6M Urea. Renaturation was achieved by gradual removal of the excess of urea followed by extensive washings in a renaturing buffer (16 h, 4° C.) and in a buffer containing […] HEPES pH 7.6, and 20 mM MgCl2 (30 min, 30° C.). The gel was then subjected to phosphorylation in a buffer containing 20 mM HEPES pH 7.6, 20 mM MgCl2, 2 mM DTT, 20 μM ATP and […] [y^32P]-ATP (30° C. for 120 min). Finally the gel was extensively washed, dried, and subjected to autoradiography.
(§1) The in-gel kinase assay in the presence of MBP was applied as described in Materials and Methods above to detect stimulation of protein kinases by the cyclic phosphates. CHO cells were treated either with medium (0 control), or with 2 μM, α GP or β GP for 2 minutes, 2 μM […] for 2 and 5 minutes and […] 1,3-cPP for 2 minutes after which the cells were lysed and analyzed.

[2] = system: Raf1/MAPK cascade; assay: Immunoprecipitation kinase assays (Raf-1, MAPK); type: cell-based, Chinese hamster; conditions: CHO cells, 2 μM for 2 and 5 minutes (FIG. 6)
Description: (§2) (v) Immunoprecipitation kinase assays. Raf-1 Activity was determined by immunoprecipitation with anti-Raf-1 C terminus antibodies (Santa Cruz Biotech, CA) using recombinant MEK1 as a substrate as previously described (Seger, 1994). Mitogen-activated protein kinase (MAPK) activity was determined by immunoprecipitation with anti-ERK2 C terminus antibodies (Santa Cruz Biotech, CA) using MBP as a substrate (Seger, 1994). Jun N-terminal kinase (JNK) activity was determined by purifying the JNK on a GST-Jun (1-97) column followed by phosphorylation (Hibi, 1993).
as §1
(§3) Their apparent molecular weights were around MW of 35-40, 55 and 62 kD. The 35-40 kD protein kinase which was activated by 1,3-cGP (E) could be assigned to the P42 MAPK (ERK 2). In addition, cells were treated as described above and then subjected to Raf-1, MAPK and IP kinase assays and these are presented in the first and second rows of FIG. 6. In parallel, JNK assay was performed (third row, […]).

[3] = system: Jun N-terminal kinase (JNK); assay: JNK assay (GST-Jun substrate); type: cell-based, Chinese hamster; conditions: CHO cells, 2 μM for 2 and 5 minutes (FIG. 6)
Description: as §2, §3

[4] = system: cell lysate phosphatases; assay: Inhibition of phosphatase activity of cell lysate (PNPP substrate); type: biochemical; conditions: 50 μM, 50 mM PNPP, 90 minutes at 37° C., pH 7.4
Description: Inhibition of phosphatase activity of cell lysate by cyclic phosphates was assayed in 1.0 ml of 50 mM Tris-HCl buffer, pH 7.4, containing 50 mM p-nitrophenyl phosphate, PNPP, as a substrate. Reaction was initiated by the addition of crude cell lysate (100 μg/ml final protein concentration) and terminated after 90 minutes at 37° C. by an addition of 50 μl of 1M NaOH. […] Assays were conducted under the same conditions as above in the presence of 50 μM cyclic phosphate. The enzyme activity in the absence of inhibitor was taken as 100% activity.

[5] = Stability of cyclic phosphates in PBS / aqueous solution (TLC); type: physicochemical; conditions: 10 mg/ml in PBS, 37°, up to 24 hours
Description: These possibilities were tested with the 4 cyclic phosphates (1,2 cGP, 1,3 cGP, 1,2 cPP and 1,3 cPPP (see Appendix A) in either aqueous solution or in cell lysates of CHO or NIH-3T3 cells (see Materials and Methods). 10 mg/ml cyclic phosphate in 1 ml of either PBS or PBS mixed with cell lysate (0.1 mg/ml protein) and incubated at 37° for up to 24 hours. Samples were tested at different times by thin layer chromatography on Silica gel 60 with n-propanol, concentrated ammonia, H2O (6:3:1 v/v/v). The Rr values for all 4 cyclic phosphates was in the range of 0.45-0.55 while α-GP and β-GP had Rf=0.14-0.16. This distinct difference allowed the qualitative detection of hydrolysis of the cyclic phosphate.

[6] = Stability of cyclic phosphates in cell lysates (TLC); conditions: 10 mg/ml in PBS mixed with CHO or NIH-3T3 cell lysate (0.1 mg/ml protein), 37°, up to 24 hours
Description: This distinct difference allowed the qualitative detection of hydrolysis of the cyclic phosphate.

[7] = system: intracellular proteins of target cells (CHO and NIH-3T3 cells); assay: Phosphorylation of intracellular proteins of target cells (general statements); type: cell-based
Description: In accordance with the invention, the phosphorylating activity of the CGs may be measured by any of the methods known in the art. Generally, following incubation of the CG with the target cells, the cells are lysed, the protein concentration in each sample is determined and the level of phosphorylation of the proteins is determined using known methods and suitable and available polyclonal or monoclonal antibodies. Typically, phosphorylation occurs on the tyrosine residues of the protein and such phosphorylation is determined using either polyclonal or monoclonal anti phosphotyrosine antibodies (such as those described below in the Examples). However, in some cases, phosphorylation occurs on the threonine or serine components of the proteins in which case polyclonal or monoclonal anti phosphothreonine or anti phosphoserine antibodies may be used.
(§4) The cyclic phosphates 1,3 cGP, 1,3 cPP, 1,2 cGP, 1,2 cPP, P-1,3 cGP and P-1,3 cPP and the controls αGP and βGP were dissolved in HBSS, or methanol to form stocks of 1 mM or 10 mM. […] The protein concentration in each sample, as evaluated by the Bradford assay, was in the range of 1-1.5 mg/ml. […] Bound antibodies were detected by horseradish peroxidase-conjugated anti-rabbit antibodies (Transduction Laboratories, Lexington Ky.) after 2 hours incubation at room temperature, using the conventional ECL detection method. […]

[8] = system: perforated CHO cells; assay: Intracellular binding in perforated CHO cells (displacement of 1,3-cP32P); set-up: species or system Chinese hamster; conditions: 20 μM 1,3-cP32P, 5 minutes at 4° C., increasing amounts of competitor (FIG. 9)
Description: Radioactivity was scored after 2 washings with PBS at 4° C. as above. […] In this set of experiments the number of displaceable (i.e. specifically bound) ligands was estimated to be in the range of 10^7-10^8 per cell.

[9] = system: tyrosine phosphorylated proteins in CHO cells; assay: Tyrosine phosphorylation in CHO cells (Western blot with anti-phosphotyrosine antibodies); type: cell-based, Chinese hamster; conditions: CHO cells, 5 μM or 10 μM, 37° C., 1, 3 or 5 mins, monoclonal antibodies; bands about 35, 60-70, 120 and 38 kD (FIG. 4)
Description: Chinese hamster ovary (CHO) cells (Puck, 1985; Gottesman, 1987) and NIH-3T3 cells (NIH), were used in the following experiments. CHO cells were grown at 37° C. in a humidified 5% CO2 atmosphere in 60×15 mm Petri dishes (Falcon) containing F12 medium supplemented with 10% fetal calf serum (FCS) and 2 mM glutamine. When reaching near confluence, the cells were placed under overnight starvation by replacing the medium to F12+2 mM glutamine with 0.1% FCS. The stimulation experiments were performed with cells which were under starvation for 12-18 hours.
as §4, with “mM. They were diluted into the cell culture medium to a final concentration of up to 20 μM. At the assigned stimulation time (0.5-20 min.) the medium was aspirated under vacuum and the cells were washed 3 times with cold (4° C.) phosphate buffered saline (PBS).” for “mM.”

[10] = system: CHO cells; assay: Uptake of 32P labeled 1,3-cPP by CHO cells; type: cell-based, Chinese hamster; conditions: intact CHO cells, increasing amounts of unlabeled compound
Description: After 2 washings with PBS the cells were disintegrated in 1 M NaOH and radioactivity was scored with a β counter. The insert presents the magnified uptake profile for short incubations (up to 2 minutes) where the intercept (0 time incubation) corresponded to approximately 3×10^6 molecules per cell, while at equilibrium (above 2 hours incubation) incorporation corresponded to approximately 2×10^8 molecules per cell.

[11] = system: estrogen receptor (ER) in human ERmod T47D cells; assay: Estrogen receptor expression in T47D cells (immunostaining, score 0 to 4); type: cell-based; conditions: 1 μM, 7 days of incubation (FIG. 11)
Description: Tumor cells were incubated for 7 days in the absence or presence of 1 μM of 1,3 cGP. On each of the noted days, cells were harvested by trypsinization, washed and fixed by dryng in air. The preparations were then peroxidased and protein blocked. Following this, the cells were labeled with first antibody (mouse-anti-human ER) for 30 mins. at room temperature (RT). After washing, cells were incubated with biotinylated second antibody for 10 min at RT. After washing, the cells were incubated with streptavidin conjugated to horse radish peroxidase and color reaction with the DAB reagent was performed. Background staining was done with hematoxylin (mayer) and the fixation process was completed with water, alcohol and finally xylene immersions. The slides were covered, sealed and examined by a pathologist in a blind fashion. Expression of the ER was scored on a scale of 0 to 4 pulses, where 4 pulses is the highest score.

[12] = system: insulin receptor; assay: Tyrosine phosphorylation of the insulin receptor in CHO-T cells; type: cell-based; conditions: 20 mins
Description: Group 4: 0.1 μM 1,3, cPP only.
Tyrosine phosphorylation was determined using anti-phosphotyrosine antibody (as described above).

**Q.** Which results are given for `O=P1(O)OCC(O)CO1` (stereo not drawn) [1,3 cGP(E)]?
**A.** stimulation of 35-40 kD protein kinase (P42 MAPK, ERK 2) [1]: activated; activation of the Raf1/MAPK cascade [2]: ≤ 5 fold; effect on the JNK pathway [3]: unaffected; inhibition of the lysate phosphatases (in words) [4]: limited inhibition

**Q.** Which “hydrolysis to the linear form in PBS” value [5] does the source give for `O=P1(O)OCC(CO)O1` (stereo not drawn) [1,2 cGP, 1,2 cyclic glycerophosphate] here?
**A.** No hydrolysis

**Q.** And the “hydrolysis to the linear form by cell lysate” value (“hydrolysis … by cell lysate” for short) [6]?
**A.** No hydrolysis

**Q.** Which “level of phosphorylation in intracellular proteins after extracellular application” value [7] does the source give for `O=P(O)(O)OC(CO)CO` [βGP, β-Glycerophosphate] here?
**A.** lack this activity

**Q.** Which results are given for `O=P(O)(O)OCC(O)CO` (stereo in doubt) [αGP, L-α-glycerophosphate, reference compound]?
**A.** displacement of 1,3-cP32P in perforated CHO cells [8]: ineffective; level of phosphorylation in intracellular proteins after extracellular application [7]: lack this activity

**Q.** Which “kinetics of tyrosine phosphorylation” value [9] does the source give for `CC1COP(=O)(O)O1` (stereo not drawn) [1,2 cPP, 1,2 cyclic propanediol phosphate] here?
**A.** enhanced tyrosine phosphorylation

**Q.** What about the “hydrolysis to the linear form in PBS” value [5] of the same molecule?
**A.** No hydrolysis

**Q.** What about the “hydrolysis … by cell lysate” value [6] of the same molecule?
**A.** No hydrolysis

**Q.** Which “hydrolysis to the linear form in PBS” value [5] does the source give for `O=P1(O)OCC(O)CO1` (stereo not drawn) [1,3 cGP, 1,3 cyclic glycerophosphate] here?
**A.** No hydrolysis

**Q.** What about the “inhibition of cell lysate phosphatase activity” value [4] of the same molecule?
**A.** approximately 10%

**Q.** What about the “effect of unlabeled competitor on the uptake profile of 1,3-cP32P” value [10] of the same molecule?
**A.** remained essentially unaltered

**Q.** What about the “displacement of 1,3-cP32P in perforated CHO cells” value [8] of the same molecule?
**A.** clear binding competition

**Q.** What about the “level of expression of estrogen receptor (ER) versus growth medium alone” value [11] of the same molecule?
**A.** increases

**Q.** And the “level of expression of estrogen receptor (ER) versus growth medium alone” value ([11]; listed as 1,3, cGP)?
**A.** significantly higher

**Q.** What about the “hydrolysis … by cell lysate” value [6] of the same molecule?
**A.** No hydrolysis

**Q.** For “insulin: hormone; binding to its receptor results in tyrosine phosphorylation of 117 kD and 200 kD receptor proteins”, which “phosphorylation of the insulin receptors” value ([12]; 0.1 nM insulin) is on record?
**A.** partial phosphorylation

**Q.** What about the “phosphorylation of the insulin receptors” value ([12]; 1 nM insulin) of the same molecule?
**A.** maximal phosphorylation
